Measurements published in patent US4758557A, “Cephalosporin derivatives and bactericides containing the same” (Meiji Seika Kaisha, Ltd., priority 1985, dated 1988).
In brackets after ≈: the same amount, converted by molar mass.

Legend:
Assay in all cases: MIC in agar plate culture-dilution assay
Format in all cases: cell-based
[1] = test system: Klebsiella pneumoniae GN-69; conditions: GN69; Klebsiella pneumoniae GN-69; agar plate culture-dilution; read-out: MIC
Excerpt: (§1) The compounds of the formula (I) and salts thereof of the present invention are new, and have high and broad antibacterial activity capable of inhibiting the growth of pathogenic microorganisms of a broad range including gram-positive and gram-negative bacteria. In order to show the usability of the compounds of the formula (I), the antibacterial activity of some typical compounds of the formula (I) was actually measured, and the results are given in the following Table-1.
(§2) MIC in agar plate culture-dilution assay (Y/ml)

[2] = test system: Serratia marcescens No. 1; conditions: Serratia marcescens No. 1; agar plate culture-dilution; read-out: MIC
Excerpt: as §1, §2

Proteus vulgaris GN-76 = conditions: GN76; Proteus vulgaris GN-76; agar plate culture-dilution; read-out: MIC
Excerpt: as §1, §2

[3] = test system: Bacillus subtilis ATCC 6633; conditions: ATCC6633; Bacillus subtilis ATCC 6633; agar plate culture-dilution; read-out: MIC
Excerpt: as §1, §2

[4] = test system: Citrobacter freundii GN-346; conditions: GN346; Citrobacter freundii GN-346; agar plate culture-dilution; read-out: MIC
Excerpt: as §1, §2

[5] = test system: Pseudomonas aeruginosa IAM-1007; conditions: IAM1007; Pseudomonas aeruginosa IAM-1007; agar plate culture-dilution; read-out: MIC
Excerpt: as §1, §2

[6] = test system: Staphylococcus aureus Smith (1); conditions: Staphylococcus aureus Smith (1); agar plate culture-dilution; read-out: MIC
Excerpt: as §1, §2

Proteus rettgeri GN-624 = conditions: Providencia rettgeri, GN624; Proteus rettgeri GN-624; agar plate culture-dilution; read-out: MIC
Excerpt: as §1, §2

[7] = test system: Pseudomonas aeruginosa E-2; conditions: E2; Pseudomonas aeruginosa E-2; agar plate culture-dilution; read-out: MIC
Excerpt: as §1, §2

[8] = test system: Enterobacter cloacae GN-7471; conditions: GN7471; Enterobacter cloacae GN-7471; agar plate culture-dilution; read-out: MIC
Excerpt: as §1, §2

[9] = test system: Escherichia coli NIHJ JC-2; conditions: NIHJJC2
Excerpt: as §1, §2

[10] = test system: Staphylococcus aureus 209P JC-1; conditions: Staphylococcus aureus 209P JC-1; agar plate culture-dilution; read-out: MIC
Excerpt: as §1, §2

[11] = test system: Pseudomonas aeruginosa M-0148; conditions: M0148; Pseudomonas aeruginosa M-0148; agar plate culture-dilution; read-out: MIC
Excerpt: as §1, §2

[12] = test system: Pseudomonas maltophilia M-0627; conditions: Stenotrophomonas maltophilia, M0627; Pseudomonas maltophilia M-0627; agar plate culture-dilution; read-out: MIC
Excerpt: as §1, §2

| Structure (SMILES) | MIC [1] [µg/mL] | MIC [2] [µg/mL] | MIC (Proteus vulgaris GN-76) [µg/mL] | MIC [3] [µg/mL] | MIC [4] [µg/mL] | MIC [5] [µg/mL] | MIC [6] [µg/mL] | MIC (Proteus rettgeri GN-624) [µg/mL] | MIC [7] [µg/mL] | MIC [8] [µg/mL] | MIC [9] [µg/mL] | MIC [10] [µg/mL] | MIC [11] [µg/mL] | MIC [12] [µg/mL] |
| --- | --- | --- | --- | --- | --- | --- | --- | --- | --- | --- | --- | --- | --- | --- |
| Nc1nc(C(NC(=O)c2cc(=O)c(O)cn2O)C(=O)N[C@@H]2C(=O)N3C(C(=O)O)=C(CSc4ccnc5c4CCC5)CS[C@H]23)cs1 (some centres unmarked) [Example 15] | 0.05 (≈ 0.0744 µM) | 0.39 (≈ 0.581 µM) | 0.1 (≈ 0.149 µM) | 3.13 (≈ 4.66 µM) | 0.2 (≈ 0.298 µM) | 0.2 (≈ 0.298 µM) | 3.13 (≈ 4.66 µM) | 0.2 (≈ 0.298 µM) | < 0.025 | 0.78 (≈ 1.16 µM) | 0.1 (≈ 0.149 µM) | 1.56 (≈ 2.32 µM) | 0.2 (≈ 0.298 µM) | 0.78 (≈ 1.16 µM) |
| Nc1nc(C(NC(=O)c2cc(=O)c(O)cn2O)C(=O)N[C@@H]2C(=O)N3C(C(=O)O)=C(CSc4ccncc4)CS[C@H]23)cs1 (stereo partly drawn) [Example 16, (6R,7R)7-[(RS)2-(2-Aminothiazol-4-yl)-2-(1,5-dihydroxy-4-pyridone-2-carboxamido)acetamido]-3-(pyridine-4-yl)thiomethyl-ceph-3-em-4-carboxylic acid] | 0.2 (≈ 0.317 µM) | 0.39 (≈ 0.617 µM) | 0.39 (≈ 0.617 µM) | 6.25 (≈ 9.89 µM) | 0.78 (≈ 1.23 µM) | < 0.025 | 3.13 (≈ 4.96 µM) | 1.56 (≈ 2.47 µM) | 0.1 (≈ 0.158 µM) | 1.56 (≈ 2.47 µM) | 0.1 (≈ 0.158 µM) | 3.13 (≈ 4.96 µM) | 3.13 (≈ 4.96 µM) | 6.25 (≈ 9.89 µM) |
| Nc1nc(C(NC(=O)c2cc(=O)c(O)cn2O)C(=O)N[C@@H]2C(=O)N3C(C(=O)[O-])=C(CSc4cc[n+](CC(=O)O)c5c4CCC5)CS[C@H]23)cs1 (stereo partly drawn) [Example 17, (6R,7R)7-[(RS)2-(2-Aminothiazol-4-yl)-2-(1,5-dihydroxy-4-pyridone-2-carboxamido)acetamido]-3-(2,3-cyclopenteno-1-carboxylmethylpyridinium-4-yl)-thiomethyl-ceph-3-em-4-carboxylate] | 0.1 (≈ 0.137 µM) | 0.2 (≈ 0.274 µM) | 0.2 (≈ 0.274 µM) | 3.13 (≈ 4.29 µM) | 0.78 (≈ 1.07 µM) | 0.05 (≈ 0.0685 µM) | 3.13 (≈ 4.29 µM) | 0.1 (≈ 0.137 µM) | 0.1 (≈ 0.137 µM) | 0.78 (≈ 1.07 µM) | < 0.025 | 3.13 (≈ 4.29 µM) | 1.56 (≈ 2.14 µM) | 6.25 (≈ 8.56 µM) |

More lines, now with the values ahead:

| MIC [1] [µg/mL] | MIC [2] [µg/mL] | MIC (Proteus vulgaris GN-76) [µg/mL] | MIC [3] [µg/mL] | MIC [4] [µg/mL] | MIC [5] [µg/mL] | MIC [6] [µg/mL] | MIC (Proteus rettgeri GN-624) [µg/mL] | MIC [7] [µg/mL] | MIC [8] [µg/mL] | MIC [9] [µg/mL] | MIC [10] [µg/mL] | MIC [11] [µg/mL] | MIC [12] [µg/mL] | Structure (SMILES) |
| --- | --- | --- | --- | --- | --- | --- | --- | --- | --- | --- | --- | --- | --- | --- |
| 0.05 (≈ 0.0744 µM) | 0.2 (≈ 0.298 µM) | 0.2 (≈ 0.298 µM) | 3.13 (≈ 4.66 µM) | 0.78 (≈ 1.16 µM) | 0.2 (≈ 0.298 µM) | 1.56 (≈ 2.32 µM) | 0.1 (≈ 0.149 µM) | 0.1 (≈ 0.149 µM) | 1.56 (≈ 2.32 µM) | 0.05 (≈ 0.0744 µM) | 1.56 (≈ 2.32 µM) | 1.56 (≈ 2.32 µM) |  | Nc1nc(C(NC(=O)c2cc(=O)c(O)cn2O)C(=O)N[C@@H]2C(=O)N3C(C(=O)[O-])=C(CSc4cc[n+](C5CC5)cc4)CS[C@H]23)cs1 (stereo partly drawn) [Example 8, (6R,7R)7-[(RS)2-(2-Aminothiazol-4-yl)-2-(1,5-dihydroxy-4-pyridone-2-carboxamido)acetamido]-3-(1-cycloproylpyridinium-4-yl)thiomethyl-ceph-3-em-4-carboxylate] |
| < 0.025 | 0.1 (≈ 0.146 µM) | 0.1 (≈ 0.146 µM) | 6.25 (≈ 9.11 µM) | 0.1 (≈ 0.146 µM) | < 0.025 | 1.56 (≈ 2.27 µM) | 0.1 (≈ 0.146 µM) | < 0.025 | 0.78 (≈ 1.14 µM) | 0.05 (≈ 0.0729 µM) | 1.56 (≈ 2.27 µM) | 0.2 (≈ 0.292 µM) | 6.25 (≈ 9.11 µM) | C[n+]1ccc(SCC2=C(C(=O)[O-])N3C(=O)[C@@H](NC(=O)C(NC(=O)c4cc(=O)c(O)cn4O)c4csc(N)n4)[C@H]3SC2)c2c1CCC2 (stereo partly drawn) [Example 14, (6R,7R)7-[(RS)2-(2-Aminothiazol-4yl)-2-(1,5-dihydroxy-4-pyridone-2-carboxamido)acetamido]-3-(2,3-cyclopenteno-1-methylpyridinium-4-yl)-thiomethyl-ceph-3-em-4-carboxylate] |
| 0.05 (≈ 0.0736 µM) | 0.2 (≈ 0.294 µM) | 0.1 (≈ 0.147 µM) | 3.13 (≈ 4.61 µM) | 0.39 (≈ 0.574 µM) | 0.39 (≈ 0.574 µM) | 3.13 (≈ 4.61 µM) | 0.2 (≈ 0.294 µM) | 0.1 (≈ 0.147 µM) | 0.78 (≈ 1.15 µM) | 0.05 (≈ 0.0736 µM) | 3.13 (≈ 4.61 µM) | 0.39 (≈ 0.574 µM) | 1.56 (≈ 2.3 µM) | Cn1c(SCC2=C(C(=O)O)N3C(=O)[C@@H](NC(=O)C(NC(=O)c4cc(=O)c(O)cn4O)c4csc(N)n4)[C@H]3SC2)nnc(O)c1=O (stereo partly drawn) [Example 22, (6R,7R)7-[(RS)2-(2-Aminothaizol-4-yl)-2-(1,5-dihydroxy-4-pyridone-2-carboxamido)acetamido]-3-(4,5-dihydro-4-methyl-5-oxo-6-hydroxy-1,2,4-triazin-3-yl)thiomethyl-ceph-3-em-4-carboxylic acid] |
